Reference: US20040022788A1, “Compositions and methods for promoting or inhibiting angiogenesis” (priority 1998, published 2004)
Entries after “also recorded” stand apart in the source; their conditions may differ.

Legend:
HUVEC [1] = experiment: HUVEC cell proliferation assay (CyQUANT); type: cell-based, human
Protocol: Cell Proliferation Assay. HUVEC were plated at a density of 5000 cells/well in media depleted of fetal calf serum (FCS) overnight to allow the cells to become quiescent. Fresh media containing 5% FCS, 10 ng/ml basic fibroblast growth factor (bFGF) and 3 ng/ml vascular endothelial growth factor (VEGF) were added to the wells along with angiostatin (1.0 μM), antibody directed against the recombinant human alpha-subunit of ATP synthase (1:10 dil), antibody directed against the recombinant human beta-subunit of ATP synthase (1:10 dil), pre-immune serum (1:10 dil) or cycloheximide ([…]). Cell density was measured after 24 hrs using CyQUANT Cell Proliferation Assay Kit (Molecular Probes) in a fluorometric plate reader (Molecular Devices). The absorbance values used to calculate the percent proliferation of the cells ranged from 1.24 or 1.00 for treated and 2.57 for untreated.

[2] = molecular target: T1, purified bovine F1 ATP synthase (Bos taurus, UniProt P00829+P19483); experiment: F1 activity assay (ATPase, coupled NADH oxidation at 340 nm); type: biochemical; conditions: NaN3 2%
T1 construct: from tissue; host or cells: bovine heart mitochondria
Protocol: FIG. 12 is a bar graph showing the inhibition of purified F1 ATP synthase by angiostatin. Purified F1 ATP synthase activity was measured spectrophotometrically at λ=340 nm by coupling the production of ADP to the oxidation of NADH via the pyruvate kinase and lactate dehydrogenase reaction in which a decrease in the absorbance at λ=340 nm indicates active protein (dark six membered rings). […] Control antibodies had no effect on activity (light circles and squares). Representative data shown, n=3.
Purification of Bovine Heart F1 ATP Synthase and F1 Activity Assay. Fresh bovine heart mitochondria were obtained as previously described (23) and sonicated to yield sub-mitochondrial particles (24). The F1 portion was separated from membrane-bound FO by chloroform extraction. The aqueous layer was centrifuged at 105,000×g to remove particulate matter before purifying over an S300 gel filtration column. […] ATPase activity was measured spectrophotometrically by monitoring at λ=340 nm by coupling the production of ADP to the oxidation of NADH via pyruvate kinase and lactate dehydrogenase reactions as described in Zheng,& Ramirez, Biochem Biophys Res Commun 261(25):499-503 (1999).

[3] = molecular target: T2, ATP synthase on the surface of HUVEC (Homo sapiens, UniProt P05496+P06576+P25705); experiment: Cell-surface ATP generation by bioluminescent luciferase assay; type: cell-based; conditions: oligomycin (0.1 mg/mL per method), 50 μM ADP
T2 construct: endogenous in cells; host or cells: HUVEC (primary human umbilical vein endothelial cells)
Protocol: Cell-surface ATP Assay. […] Cells were treated with (1 μM) angiostatin or (0.1 mg/mL) oligomycin for 1 hr at 37° C. All cells were then incubated with 0.1 Ci ^32P and 0.1 Ci ([…]) [2,8-^3H]-ADP (NEN Life Sciences) for 1 min. Supernatants were removed and centrifuged before assaying for ATP production by thin layer chromatography (TLC) or by firefly luciferase assay. ATP Generation by Bioluminescent Luciferase Assay. […] Louis, Mo.). In this firefly luciferin-luciferase reaction, only ATP is readily detected since the enzymatic reaction of firefly luciferase to oxidize luciferin is specific for ATP relative to all other nucleotides. Samples were injected with the ATP assay mixture and recordings were made in a LuminoskanRS (LabSystems, Franklin, Mass.) over a 10 s period. The response in a given sample or standard was quantified as area under the peak of the response and averaged for duplicate determinations. Data are expressed as picomoles of ATP produced per cell based on standards determined under the same conditions with each experiment. Angiostatin was prepared as described in Sottrup-Jensen, […]., Petersen, T. E. & Magnusson, S. (1978) Progress in Chemical Fibrinolysis and Thrombolysis (Raven Press, New York).

[4] = tested on: angiostatin binding site on HUVEC; experiment: Competition binding assay, 125I-labeled angiostatin on HUVEC; parameters: species or system human
Protocol: FIG. 6. Competition binding assay between angiostatin and the antibody against the alpha subunit of ATP synthase from E. coli. […] Cells were washed and remaining bound radioactivity was quantified by γ-counting. Non-specific binding was measured in the presence of excess unlabeled angiostatin and was subtracted from total binding. […] Competition studies were also performed simultaneously using rabbit pre-immune serum to account for non-specific inhibition. Error bars represent standard deviation. A 1 tailed homoscedastic t test was used for statistical analysis; p<0.10.
Binding Assays. Ligands were radioiodinated by using Iodobeads (Pierce), repurified on L-lysine-Sepharose, eluted with 100 mM ε-aminocaproic acid, and dialyzed in PBS, pH 7.0 before use in binding assays. […] Nonspecific binding was measured in the presence of excess unlabeled ligand.

[5] = molecular target: T3, recombinant alpha subunit of human ATP synthase (Homo sapiens, UniProt P25705); experiment: Ligand blot binding to the recombinant alpha subunit of ATP synthase
T3 construct: His tag; made in house; host or cells: E. coli BL21DE3
Protocol: FIGS. 7A-7E. Angiostatin binding to the recombinant alpha subunit of human ATP synthase. The alpha subunit of human ATP synthase was cloned and expressed in E. coli and purified using Qiagen's nickel-Sepharose protein purification system before dialyzing in phosphate buffered saline (PBS), pH 7.0. Recombinant protein was electrophoresed on 5-15% SDS-PAGE, electroblotted onto Immobilon™ membrane and incubated 18 h in 10 mM Tris-HCl, 0.15M NaCl, 0.05% NP40, pH 7.5 (TSN) containing ^125I-angiostatin. For competition studies, unlabeled ligand was added 4 h prior to radiolabeled ligand. Blots were washed in TSN buffer containing 0.05% Tween80 and bound radioactivity was quantified on a Molecular Dynamics PhosphorImager™.
Purification of the alpha-Subunit of ATP Synthase. Competent E. coli BL21DE3 were transformed with the pET24a(+) vector containing the alpha subunit, plated on 2× Bacto-yeast tryptone (YT) agarose, and grown overnight at 37° C. Twenty milliliters of 2× YT containing […] kanamycin was inoculated with one colony and grown overnight at 37° C. (200 rpm). A 1-liter culture (2× YT, […] kanamycin) was inoculated with 20 ml of the noninduced overnight culture and grown at 37° C. to an OD of 0.6 at a wavelength of 600 nm. Isopropyl […] was added to a final concentration of 1 mM and grown for an additional 3 h. Cells were harvested by centrifugation at 8,000 rpm for 10 min and stored overnight at −20° C. Lysates were prepared under denaturing conditions and batch-purified by using Qiagen Ni-NTA agarose. Resulting protein was dialyzed against PBS, pH 7.0 for use in all experiments.

[6] = tested on: plasminogen binding sites on HUVEC; experiment: Competition binding assay, 125I-labeled plasminogen on HUVEC; parameters: species or system human; conditions: 1.0 μM 125I-labeled plasminogen; 25-fold molar excess of unlabeled plasminogen
Protocol: FIG. 2. Competition binding assay between plasminogen and angiostatin. HUVEC were plated at a density of 10,000 cells/well and incubated with 1.0 μM ^125I-labeled plasminogen in the presence of 100-fold molar excess of unlabeled angiostatin for 1 h at 4° C. Cells were washed and the remaining radioactivity was quantified by γ-counting.
(§1) Binding Assays. Ligands were radioiodinated by using Iodobeads (Pierce), repurified on L-lysine-Sepharose, eluted with 100 mM ε-aminocaproic acid, and dialyzed in PBS, pH 7.0 before use in binding assays. HUVEC were plated at a density of 5,000 or 10,000 cells/well and incubated with increasing concentrations of ^125I-labeled ligand in media containing 1% BSA for 1 h at 4° C. in 96-well plates. Wells were washed, and remaining bound radioactivity was quantified by using an LKB 1272 γ-radiation counter. Nonspecific binding was measured in the presence of excess unlabeled ligand.

HUVEC [7] = experiment: Direct binding of 125I-labeled plasminogen or angiostatin to endothelial cells, Scatchard analysis; parameters: species or system human; conditions: 125I-labeled ligand, 1 h at 4° C., read-out: apparent dissociation constant (Kd)
Protocol: FIGS. 1A and 1B. Direct binding assay and Scatchard analysis of plasminogen and angiostatin with endothelial cells. HUVEC were plated at a density of 10,000 cells/well and incubated with increasing concentrations of ^125I-labeled-plasminogen or angiostatin. FIG. 1A. ^125I-labeled plasminogen binding was concentration-dependent and saturable with an apparent dissociation constant ([…]) of 158 nM and 870,000 sites/cell. FIG. 1B. […] Error bars represent standard deviation.
as §1

C[C@@H]1C[C@@H]([C@H](O)CC2CC(=O)NC(=O)C2)C(=O)[C@@H](C)C1 [Cycloheximide]
inhibition at 10 µg/mL (HUVEC [1]; Homo sapiens, HUVEC, 24 h, read-out: Percent Inhibition (+/− S.E.M.) of HUVEC proliferation): 100%
cellular morphology of treated cells (HUVEC [1]; compared with untreated cells, data not shown): obvious rounded morphology

[N-]=[N+]=[N-].[Na+] [NaN3, reference compound]
inhibition of purified F1 ATPase activity [2]: completely inhibited

CC[C@H]1/C=C/C=C/C[C@@H](C)[C@H](O)[C@@](C)(O)C(=O)[C@@H](C)[C@H](O)[C@@H](C)C(=O)[C@@H](C)[C@H](O)[C@@H](C)/C=C/C(=O)O[C@@H]2[C@H](C)[C@H](CC1)O[C@]1(CC[C@H](C)[C@H](C[C@@H](C)O)O1)[C@H]2C [Oligomycin, reference compound]
inhibition at 100 µg/mL ([3]; HUVEC, read-out: Percent Inhibition (+/− S.E.M.) of ATP generation): 84%
Percent Inhibition (+/− S.E.M.) of ATP generation [3]: 83.5 +/− 4.5%

NCCCCCC(=O)O [ε-aminocaproic acid, reference compound]
inhibition of 125I-labeled angiostatin binding ([4]; 100 mM ε-aminocaproic acid, data not shown): only slightly inhibited

plasminogen: purified from human plasma by affinity chromatography, 92 kDa
inhibition of 125I-labeled angiostatin binding to recombinant alpha subunit ([5]; 0.5 nM 125I-labeled angiostatin, 2500-fold molar excess of unlabeled plasminogen): not inhibited
binding of 125I-labeled ligand to recombinant alpha subunit ([5]; ligand blot): did not bind
inhibition of 125I-labeled plasminogen binding [6]: about 80%
inhibition of 125I-labeled angiostatin binding ([4]; excess unlabeled plasminogen (2-fold molar excess in FIG. 2 legend)): little or no effect; also recorded: no inhibition
Kd (HUVEC [7]): 158 nM
